Reference: ChEMBL document CHEMBL3885881, “DrugMatrix”

Organism: Rattus norvegicus
Assay: DrugMatrix - Regimen: Daily Repeat
Type: toxicity, organism-based, Sprague-Dawley
Parameters: regimen Daily Repeat, gender Male, age 6-8 weeks
Conditions: in vivo, po, route oral GAVAGE, […]; for ABSOLUTE BASOPHIL / ABSOLUTE EOSINOPHIL / ABSOLUTE LYMPHOCYTE / ABSOLUTE MONOCYTE / ABSOLUTE SEGMENTED NEUTROPHIL / BASOPHIL / EOSINOPHIL / ERYTHROCYTE COUNT / HEMATOCRIT / HEMOGLOBIN / LEUKOCYTE COUNT / LYMPHOCYTE / MEAN CORPUSCULAR HEMOGLOBIN / MEAN CORPUSCULAR HEMOGLOBIN CONCENTRATION / MEAN CORPUSCULAR VOLUME / MONOCYTE / NEUTROPHIL / NUCLEATED RED BLOOD CELLS / PLATELET COUNT: tissue Blood; for ALANINE AMINOTRANSFERASE / ALBUMIN / ALKALINE PHOSPHATASE / ASPARTATE AMINOTRANSFERASE / BLOOD UREA NITROGEN / CARBON DIOXIDE / CHLORIDE / CHOLESTEROL / CREATINE PHOSPHOKINASE / CREATININE / GLUCOSE / LACTATE DEHYDROGENASE / LIPASE / PHOSPHORUS / POTASSIUM / SODIUM / TOTAL BILIRUBIN / TOTAL PROTEIN / URIC ACID: tissue Plasma
[1] = 25 mg/kg, 120 h, dose level Low, time 5 day
[2] = 800 mg/kg, 72 h, dose level High, time 3 day
[3] = 800 mg/kg, 120 h, dose level High, time 5 day

## CC(C)(C)NC(=O)[C@H]1CC[C@H]2[C@@H]3CC[C@H]4NC(=O)C=C[C@]4(C)[C@H]3CC[C@]12C [FINASTERIDE]
[1]
  ABSOLUTE BASOPHIL: 0 CELLS/uL
  ABSOLUTE EOSINOPHIL: 34.67 CELLS/uL
  ABSOLUTE LYMPHOCYTE: 7140 CELLS/uL
  ABSOLUTE MONOCYTE: 141.33 CELLS/uL
  ABSOLUTE SEGMENTED NEUTROPHIL: 817.33 CELLS/uL
  BASOPHIL: 0%
  EOSINOPHIL: 0.67%
  ERYTHROCYTE COUNT: 5.11 x10E6/uL
  HEMATOCRIT: 33.07%
  HEMOGLOBIN: 13.03 G/DL
  LEUKOCYTE COUNT: 8.13 x10E3/uL
  LYMPHOCYTE: 87.67%
  MEAN CORPUSCULAR HEMOGLOBIN: 25.53 pg
  MEAN CORPUSCULAR HEMOGLOBIN CONCENTRATION: 39.4 G/DL
  MEAN CORPUSCULAR VOLUME: 64.77 fL
  MONOCYTE: 1.67%
  NEUTROPHIL: 10%
  NUCLEATED RED BLOOD CELLS: 0 /100WBC
  PLATELET COUNT: 1248.33 x10E3/uL
  ALANINE AMINOTRANSFERASE: 61 u/L
  ALBUMIN: 4.23 G/DL
  ALKALINE PHOSPHATASE: 355.67 u/L
  ASPARTATE AMINOTRANSFERASE: 74.67 u/L
  BLOOD UREA NITROGEN: 11.67 mg/dL
  CARBON DIOXIDE: 32.33 mmol/L
  CHLORIDE: 103 MEQ/L
  CHOLESTEROL: 87.33 mg/dL
  CREATINE PHOSPHOKINASE: 247.33 u/L
  CREATININE: 0.43 mg/dL
  GLUCOSE: 152 mg/dL
  LACTATE DEHYDROGENASE: 82.33 u/L
  LIPASE: 11 u/L
  PHOSPHORUS: 11.7 mg/dL
  POTASSIUM: 6.04 MEQ/L
  SODIUM: 146.03 MEQ/L
  TOTAL BILIRUBIN: 0.17 mg/dL
  TOTAL PROTEIN: 5.93 G/DL
  URIC ACID: 0.8 mg/dL
[2]
  ABSOLUTE BASOPHIL: 0 CELLS/uL
  ABSOLUTE EOSINOPHIL: 0 CELLS/uL
  ABSOLUTE LYMPHOCYTE: 7333 CELLS/uL
  ABSOLUTE MONOCYTE: 111.33 CELLS/uL
  ABSOLUTE SEGMENTED NEUTROPHIL: 889 CELLS/uL
  BASOPHIL: 0%
  EOSINOPHIL: 0%
  ERYTHROCYTE COUNT: 5.15 x10E6/uL
  HEMATOCRIT: 31.93%
  HEMOGLOBIN: 12.77 G/DL
  LEUKOCYTE COUNT: 8.33 x10E3/uL
  LYMPHOCYTE: 88.33%
  MEAN CORPUSCULAR HEMOGLOBIN: 24.83 pg
  MEAN CORPUSCULAR HEMOGLOBIN CONCENTRATION: 40 G/DL
  MEAN CORPUSCULAR VOLUME: 62.17 fL
  MONOCYTE: 1.33%
  NEUTROPHIL: 10.33%
  NUCLEATED RED BLOOD CELLS: 0 /100WBC
  PLATELET COUNT: 974.67 x10E3/uL
  ALANINE AMINOTRANSFERASE: 103.67 u/L
  ALBUMIN: 3.93 G/DL
  ALKALINE PHOSPHATASE: 409.67 u/L
  ASPARTATE AMINOTRANSFERASE: 102.67 u/L
  BLOOD UREA NITROGEN: 11 mg/dL
  CARBON DIOXIDE: 26 mmol/L
  CHLORIDE: 102.33 MEQ/L
  CHOLESTEROL: 70.33 mg/dL
  CREATINE PHOSPHOKINASE: 348.33 u/L
  CREATININE: 0.1 mg/dL
  GLUCOSE: 149 mg/dL
  LACTATE DEHYDROGENASE: 104.67 u/L
  LIPASE: 10.67 u/L
  PHOSPHORUS: 11.3 mg/dL
  POTASSIUM: 5.02 MEQ/L
  SODIUM: 144 MEQ/L
  TOTAL BILIRUBIN: 0.1 mg/dL
  TOTAL PROTEIN: 5.37 G/DL
  URIC ACID: 0.87 mg/dL
[3]
  ABSOLUTE BASOPHIL: 0 CELLS/uL
  ABSOLUTE EOSINOPHIL: 85.67 CELLS/uL
  ABSOLUTE LYMPHOCYTE: 6528 CELLS/uL
  ABSOLUTE MONOCYTE: 164.33 CELLS/uL
  ABSOLUTE SEGMENTED NEUTROPHIL: 922 CELLS/uL
  BASOPHIL: 0%
  EOSINOPHIL: 1%
  ERYTHROCYTE COUNT: 5.25 x10E6/uL
  HEMATOCRIT: 33.4%
  HEMOGLOBIN: 12.97 G/DL
  LEUKOCYTE COUNT: 7.7 x10E3/uL
  LYMPHOCYTE: 85%
  MEAN CORPUSCULAR HEMOGLOBIN: 24.7 pg
  MEAN CORPUSCULAR HEMOGLOBIN CONCENTRATION: 38.83 G/DL
  MEAN CORPUSCULAR VOLUME: 63.67 fL
  MONOCYTE: 2%
  NEUTROPHIL: 12%
  NUCLEATED RED BLOOD CELLS: 0 /100WBC
  PLATELET COUNT: 1238.33 x10E3/uL
  ALANINE AMINOTRANSFERASE: 55.33 u/L
  ALBUMIN: 4.33 G/DL
  ALKALINE PHOSPHATASE: 297 u/L
  ASPARTATE AMINOTRANSFERASE: 76.67 u/L
  BLOOD UREA NITROGEN: 13.67 mg/dL
  CARBON DIOXIDE: 32.33 mmol/L
  CHLORIDE: 103 MEQ/L
  CHOLESTEROL: 66.33 mg/dL
  CREATINE PHOSPHOKINASE: 232.33 u/L
  CREATININE: 0.12 mg/dL
  GLUCOSE: 157.67 mg/dL
  LACTATE DEHYDROGENASE: 64.33 u/L
  LIPASE: 10.33 u/L
  PHOSPHORUS: 11.1 mg/dL
  POTASSIUM: 5.99 MEQ/L
  SODIUM: 147.03 MEQ/L
  TOTAL BILIRUBIN: 0.1 mg/dL
  TOTAL PROTEIN: 6.07 G/DL
  URIC ACID: 0.5 mg/dL
